Assay results published in US20260091136A1, “USING ENHO GENE THERAPY TO TREAT CARDIOMETABOLIC DISEASE” (University of Pittsburgh-of the Commonwealth System of …, priority 2023, published 2026).
“Also recorded” adds a separate entry of the source.

What was measured:
Type in all cases: in vivo, C57BL/6J mice
LCAD = LCAD activity assay in cardiac tissue; settings: isolated cardiac tissues; downregulated in HFpEF vs chow
From the text: (§1) Animal Care and Use. Male C57BL/6J 8-week-old mice were obtained from the Jackson Laboratory and maintained on chow for 4 weeks to acclimate to their new environment. Animals were housed in the University of Pittsburgh animal facility under standard conditions with ad libitum access to water and food and maintained on a constant 12-hour light/dark cycle. At 12 weeks of age, the mice were exposed to normal chow (Chow; 60% carbohydrate, 26% protein, 14% fat), or a combination of high-fat diet (HFD; 20% carbohydrate, 20% protein, 60% fat) plus No-nitro-L-arginine methyl ester (L-NAME: 0.5 g/L) supplemented in their drinking water after adjusting the pH to 7.4 with 1N NaOH to induce HFpEF [10]. For cohort 1, the mice were subject to the HFpEF diet for 15 weeks. For cohort 2, after 8 weeks of diet, mice were randomly assigned to a control or treatment group receiving daily intraperitoneal injections of either vehicle or recombinant adropin at 450 nmol/kg animal weight prepared in PBS with 0.1% BSA for the remaining 5 weeks of the study. L-NAME supplemented drinking water was changed weekly and adropin was made fresh and sterile filtered before each use.
LCAD Activity Assay/Biochemical Assays/Enzyme activity assay. […] The reaction was initiated with 60 µM acyl-CoA, and the rate of absorbance change was measured/observed at 600 nm over 45 min. […]

HFpEF mice [1] = assay: Body weight, HFpEF (HFD+L-NAME) mice with daily i.p. recombinant adropin (cohort 2, Examples 3 and 4); settings: HFpEF+Adropin vs vehicle-treated HFpEF, 450 nmol/kg daily i.p., day 28
From the text: (§2) Twelve week-old C57BL/6J wild-type male mice were exposed to normal chow, or a combination of 60% high fat diet plus N^ω-nitro-L-arginine methyl ester (L-NAME: 0.5 g/L in drinking water) to induce HFpEF. After 8 weeks of diet, mice were randomly assigned to a control HFpEF group, or to a group receiving daily intraperitoneal injections of recombinant Adropin (450 nmol/kg) for the remaining weeks of the study. All animal experiments were approved by the University of Pittsburgh Institutional Animal Care and Use Committee. […] These changes occurred in the absence of systolic dysfunction (FIG. 6). Each marker of cardiac dysfunction was absent in HFpEF mice treated with Adropin (FIG. 6).
Animal Care and Use. Male C57BL/6J 8-week-old mice were obtained from the Jackson Laboratory and maintained on chow for 4 weeks to acclimate to their new environment. Animals were housed in the University of Pittsburgh animal facility under standard conditions with ad libitum access to water and food and maintained on a constant 12-hour light/dark cycle. At 12 weeks of age, the mice were exposed to normal chow (Chow; 60% carbohydrate, 26% protein, 14% fat), or a combination of high-fat diet (HFD; 20% carbohydrate, 20% protein, 60% fat) plus No-nitro-L-arginine methyl ester (L-NAME: 0.5 g/L) supplemented in their drinking water after adjusting the pH to 7.4 with 1N NaOH to induce HFpEF [10]. […]

HFpEF mice [2] = assay: Intraperitoneal glucose tolerance test (IPGTT), cohort 2
From the text: as §2
Animal Care and Use. Male C57BL/6J 8-week-old mice were obtained from the Jackson Laboratory and maintained on chow for 4 weeks to acclimate to their new environment. Animals were housed in the University of Pittsburgh animal facility under standard conditions with ad libitum access to water and food and maintained on a constant 12-hour light/dark cycle. […]
Intraperitoneal Glucose Tolerance Test (IPGTT). […] Blood glucose was measured by tail bleed at set time points using a Bayer Contour Next EZ handheld glucometer (t=15, 30, 45, 60, and 120 min).

HFpEF mice [3] = assay: Liver H&E histology, NAFLD/MAFLD activity score (NAS), cohort 2; settings: adropin-treated vs HFpEF mice; non-significant
From the text: as §1
Histology. […] Histology sections were visualized with the Evos FL Auto 2 Microscope, observed changes in structure were quantified using ImageJ software and representative images are shown.

[4] = tested on: hexosamine biosynthesis pathway (HBP); assay: Immunoblotting of cardiac proteins (O-GlcNAc, GFAT, OGT, OGA, CD36, PDK4, PLIN5); settings: heart; for CD36 abundance: to levels observed in chow mice; for total cardiac protein O-GlcNAcylation: to levels observed in chow mice (P=0.06 in b192)
From the text: as §1
Protein Isolation and Immunoblotting. Heart tissues were rapidly harvested following euthanasia, weighed, RV discarded and LV flash-frozen in liquid nitrogen. For protein isolation, tissues were minced and lysed in CHAPS buffer (1% CHAPS, 150 mM NaCl, 10 mM HEPES, pH 7.4) using a VWR 4-Place Mini Bead Mill, then incubated on ice for ˜2.5 h. Homogenates were spun at 10,000 g at 4° C. for 10 min, and the supernatants collected for immunoblotting. For immunoblotting, protein lysates were quantitated using a BioDrop LITE Analyzer, prepared in LDS sample buffer, separated using Bolt SDS-PAGE 4-12% or 12% Bis-Tris Plus gels, and transferred to nitrocellulose membranes. Membranes were blocked using SuperBlock (PBS) Blocking Buffer and incubated overnight in the following primary antibodies: rabbit PDK4 (PA5-13776); mouse 0-GlcNAc (9875), rabbit GFAT (D12F4), rabbit OGT (D1D8Q), rabbit OGA (E9C5U), rabbit GAPDH (2118S); rabbit CD36 (18836-1-AP), rabbit CPT1b (22170-1-AP), rabbit LCAD (17526-1-AP), and GCN5L1 as previously reported (Scott et al., 2012). Protein loading was confirmed using GAPDH as a loading control. Fluorescent […] or anti-rabbit secondary antibodies (red, 700 nm; green, 800 nm) were used to detect expression levels. Images were obtained using Licor Odyssey CLx System and protein densitometry was measured using the LiCor Image Studio Lite Ver. 5.2 Software.

[5] = Adropin-treated HFpEF mice, listed as adropin

Substance: Adropin: recombinant Adropin peptide hormone encoded by the ENHO gene; full-length (SEQ ID NO: 1) or cleaved product of amino acids 34-76 (SEQ ID NO: 2) (CHSRSADVDSLSESSPNSSPGPCPEKAPPPQKPSHEGSYLLQP)
- LCAD enzymatic activity (oxidation rates) (LCAD): restored
- absolute body weight (HFpEF mice [1]): not associated with a significant decrease; also recorded: does not significantly change
- absolute body weight (HFpEF mice [1]; listed as adropin): non-significant decrease
- increase in circulating blood glucose levels (IPGTT) (HFpEF mice [2]; HFpEF increase vs chow, after adropin treatment): significantly attenuated
- whole-body glucose tolerance / sensitivity (HFpEF mice [2]; HFpEF+Adropin vs HFpEF, 450 nmol/kg daily i.p.): significantly restored; also recorded: significantly improves
- decrease in liver NAS (HFpEF mice [3]): ~7%
- PDK4 enzyme expression [4]: no observed changes
- inhibition of cardiac protein O-GlcNAcylation by mediating expression of OGT and OGA [4]: did not inhibit
- GFAT expression ([4]; Adropin-treated HFpEF mice): did not reduce
- CD36 abundance ([4]; Adropin-treated HFpEF mice): restored
- total cardiac protein O-GlcNAcylation ([4]; Adropin-treated HFpEF mice): restored; also recorded: decrease
- total cardiac protein O-GlcNAcylation [4, 5]: restored
- CD36 abundance [4, 5]: restored; also recorded: significantly attenuated
- PLIN5 expression (aberrant fatty acid utilization) ([4]; increased in HFpEF vs chow): corrected
